# Assays:
# [1] = test system: E. faecalis (ATCC29212); experiment: MIC assay, broth microdilution, E. faecalis; type: cell-based, Enterococcus faecalis; conditions: supplement table SI-21; E. faecalis LMG 08222 (ATCC29212); broth microdilution in CAMHB + 3 % v/v lysed horse blood, 37 °C, 20 h; tested three times in triplicates
# Protocol: (§1) Moreover, variations in activity towards both strains and between the different site‐ and endo/exo isomers remained limited to a factor of 4. The activity of 3 also very closely resembles that of thiostrepton, showing that even removing part of the tail region has little effect on its activity.
# (§2) Biological Activity Assays
# (§3) Preparation of antimicrobial agents
# (§4) Thiostrepton and its variants were dissolved and diluted in DMSO to a concentration of 640 µg/ml, and stored at -20 °C. Before use, they were diluted 20 fold in Mueller Hinton Broth 2 (CAMHB; cation-adjusted, Sigma-Aldrich).
# (§5) Dilution of the thiostrepton compounds in CAMHB was done in 50 % volume steps to prevent precipitation.
# (§6) Vancomycin for the quality controls was dissolved in MQ to a concentration of 256 mg/ml and stored at -20 °C.
# (§7) It was diluted in CAMHB to a final concentration of 256 µg/ml before use.
# (§8) Strains and growth conditions
# (§9) The MIC values of thiostrepton and its variants were determined for Staphylococcus aureus LMG 10147 […]
# (§10) from glycerol stocks on LB (Formedium™) and GM17 (Difco™) plates respectively. […]
# (§11) Well 11, lacking the test compound, functions as a growth control and well 12 as a sterility control. […] To ensure MIC data reliability, MIC values for vancomycin were determined for every series of tests performed, as described […]
# [2] = test system: S. aureus (ATCC29213); experiment: MIC assay, broth microdilution, S. aureus; type: cell-based, Staphylococcus aureus; conditions: supplement table SI-21; S. aureus LMG 10147 (ATCC29213); broth microdilution in CAMHB, 37 °C, 20 h; tested three times in triplicates
# Protocol: as §1, §2, §3, §4, §5, §6, §7, §8, §9, §10, §11
smiles,measurement,setting,value
"C=C(NC(=O)C(=C)NC(=O)c1csc(C2=N[C@@H]3c4csc(n4)[C@H]4NC(=O)c5csc(n5)[C@H]([C@](C)(O)[C@@H](C)O)NC(=O)[C@H]5CSC(=N5)/C(=C/C)NC(=O)[C@H]([C@@H](C)O)NC(=O)c5csc(n5)[C@]3(CC2)NC(=O)[C@H](C)NC(=O)C(=C)NC(=O)[C@H](C)NC(=O)[C@H]([C@@H](C)CC)N[C@@H]2C=Cc3c([C@H](C)O)cc(nc3[C@H]2O)C(=O)O[C@@H]4C)n1)C(N)=O [Thiostrepton, thiostrepton]",MIC against E. faecalis (VSE),[1],0.5 mg/L
same,MIC against S. aureus (MSSA),[2],0.5 mg/L

# — publication PMC6790694, “Selective Modification of Ribosomally Synthesized and Post‐Translationally Modified Peptides (RiPPs) through Diels–Alder Cycloadditions on Dehydroalanine Residues” (Chemistry (Weinheim an Der Bergstrasse, Germany), 2019)
